Test results taken from patent publication US20210363254A1, “PHARMACEUTICAL COMBINATIONS” (Novartis AG, priority 2018, published 2021).
Where two headings read alike, the source gives them in different places.

[1] = RDE (Regimen 1B 120 mg) (n = 9)

SMILES: COc1ncc(-c2nc3c(n2C(C)C)[C@H](c2ccc(Cl)cc2)N(c2cc(Cl)cn(C)c2=O)C3=O)c(OC)n1 [HDM201, (S)-5-(5-Chloro-1-methyl-2-oxo-1,2-dihydro-pyridin-3-yl)-6-(4-chloro-phenyl)-2-(2,4-dimethoxy-pyrimidin-5-yl)-1-isopropyl-5,6-dihydro-1H-pyrrolo[3,4-d]imidazol-4-one]
- Nausea, Grade 3/4 (1B all subjects, N=20): 1 n (%)
- Neuralgia, All Grades (1B all subjects, N=20): 1 n (%)
- Neuralgia, Grade 3/4 (1B all subjects, N=20): 0 n (%)
- Neutropenia, All Grades (1B all subjects, N=20): 6 n (%)
- Neutropenia, Grade 3/4 (1B all subjects, N=20): 5 n (%)
- Neutrophil Count Decreased, All Grades (1B all subjects, N=20): 3 n (%)
- Neutrophil Count Decreased, Grade 3/4 (1B all subjects, N=20): 2 n (%)
- Oedema, All Grades (1B all subjects, N=20): 1 n (%)
- Oedema, Grade 3/4 (1B all subjects, N=20): 0 n (%)
- Oral Candidiasis, All Grades (1B all subjects, N=20): 1 n (%)
- Oral Candidiasis, Grade 3/4 (1B all subjects, N=20): 0 n (%)
- Platelet Count Decreased, All Grades (1B all subjects, N=20): 4 n (%)
- Platelet Count Decreased, Grade 3/4 (1B all subjects, N=20): 0 n (%)
- Pruritus, All Grades (1B all subjects, N=20): 1 n (%)
- Pruritus, Grade 3/4 (1B all subjects, N=20): 0 n (%)
- Thrombocytopenia, All Grades (1B all subjects, N=20): 5 n (%)
- Thrombocytopenia, Grade 3/4 (1B all subjects, N=20): 2 n (%)
- Total, All Grades (1B all subjects, N=20): 19 n (%)
- Total, Grade 3/4 (1B all subjects, N=20): 9 n (%)
- Vomiting, All Grades (1B all subjects, N=20): 5 n (%)
- Vomiting, Grade 3/4 (1B all subjects, N=20): 0 n (%)
- Weight Decreased, All Grades (1B all subjects, N=20): 1 n (%)
- Weight Decreased, Grade 3/4 (1B all subjects, N=20): 0 n (%)
- White Blood Cell Count Decreased, All Grades (1B all subjects, N=20): 3 n (%)
- White Blood Cell Count Decreased, Grade 3/4 (1B all subjects, N=20): 0 n (%)
- Anemia, All Grades (All Regimens (N = 85)): 25 (29) n (%)
- Anemia, Grade 3/4 (All Regimens (N = 85)): 10 n (%)
- Decreased Appetite, All Grades (All Regimens (N = 85)): 19 (22) n (%)
- Decreased Appetite, Grade 3/4 (All Regimens (N = 85)): 2 n (%)
- Diarrhea, All Grades (All Regimens (N = 85)): 13 (15) n (%)
- Diarrhea, Grade 3/4 (All Regimens (N = 85)): 0 n (%)
- Fatigue, All Grades (All Regimens (N = 85)): 19 (22) n (%)
- Fatigue, Grade 3/4 (All Regimens (N = 85)): 2 n (%)
- Leukopenia, All Grades (All Regimens (N = 85)): 12 (14) n (%)
- Leukopenia, Grade 3/4 (All Regimens (N = 85)): 8 n (%)
- Nausea, All Grades (All Regimens (N = 85)): 44 (52) n (%)
- Nausea, Grade 3/4 (All Regimens (N = 85)): 1 n (%)
- Neutropenia, All Grades (All Regimens (N = 85)): 18 (21) n (%)
- Neutropenia, Grade 3/4 (All Regimens (N = 85)): 15 n (%)
- Platelet Count Decreased, All Grades (All Regimens (N = 85)): 15 (18) n (%)
- Platelet Count Decreased, Grade 3/4 (All Regimens (N = 85)): 7 n (%)
- Thrombocytopenia, All Grades (All Regimens (N = 85)): 27 (32) n (%)
- Thrombocytopenia, Grade 3/4 (All Regimens (N = 85)): 14 n (%)
- Vomiting, All Grades (All Regimens (N = 85)): 19 (22) n (%)
- Vomiting, Grade 3/4 (All Regimens (N = 85)): 0 n (%)
- White blood cell count decrease, All Grades (All Regimens (N = 85)): 11 (13) n (%)
- White blood cell count decrease, Grade 3/4 (All Regimens (N = 85)): 3 n (%)
- Anemia, All Grades [1]: 2 (22.2) n(%)
- Anemia, G3/4 [1]: 0 n(%)
- Leukopenia/white blood cell count decreased, All Grades [1]: 3 (33.3) n(%)
- Leukopenia/white blood cell count decreased, G3/4 [1]: 0 n(%)
- Neutropenia/neutrophil count decreased, All Grades [1]: 2 (22.2) n(%)
- Neutropenia/neutrophil count decreased, G3/4 [1]: 2 (22.2) n(%)
- Thrombocytopenia/platelet count decreased, All Grades [1]: 4 (44.4) n(%)
- Thrombocytopenia/platelet count decreased, G3/4 [1]: 0 n(%)
- Anemia, All Grades (Regimen 1A (n = 26)): 10 (38.5) n(%)
- Anemia, G3/4 (Regimen 1A (n = 26)): 3 (11.5) n(%)
- Leukopenia/white blood cell count decreased, All Grades (Regimen 1A (n = 26)): 9 (34.6) n(%)
- Leukopenia/white blood cell count decreased, G3/4 (Regimen 1A (n = 26)): 5 (19.2) n(%)
- Neutropenia/neutrophil count decreased, All Grades (Regimen 1A (n = 26)): 9 (34.6) n(%)
- Neutropenia/neutrophil count decreased, G3/4 (Regimen 1A (n = 26)): 8 (30.7) n(%)
- Thrombocytopenia/platelet count decreased, All Grades (Regimen 1A (n = 26)): 12 (46.2) n(%)
- Thrombocytopenia/platelet count decreased, G3/4 (Regimen 1A (n = 26)): 8 (30.8) n(%)
- Anemia, All Grades (Regimen 1B (n = 20)): 5 (25.0) n(%)
- Anemia, G3/4 (Regimen 1B (n = 20)): 0 n(%)
- Leukopenia/white blood cell count decreased, All Grades (Regimen 1B (n = 20)): 5 (25.0) n(%)
- Leukopenia/white blood cell count decreased, G3/4 (Regimen 1B (n = 20)): 1 (5.0) n(%)
- Neutropenia/neutrophil count decreased, All Grades (Regimen 1B (n = 20)): 8 (40.0) n(%)
- Neutropenia/neutrophil count decreased, G3/4 (Regimen 1B (n = 20)): 6 (30.0) n(%)
- Thrombocytopenia/platelet count decreased, All Grades (Regimen 1B (n = 20)): 9 (45.0) n(%)
- Thrombocytopenia/platelet count decreased, G3/4 (Regimen 1B (n = 20)): 2 (10.0) n(%)
- Anemia, All Grades (Regimen 2A (n = 20)): 6 (30.0) n(%)
- Anemia, G3/4 (Regimen 2A (n = 20)): 4 (20.0) n(%)
- Leukopenia/white blood cell count decreased, All Grades (Regimen 2A (n = 20)): 4 (20.0) n(%)
- Leukopenia/white blood cell count decreased, G3/4 (Regimen 2A (n = 20)): 3 (15.0) n(%)
- Neutropenia/neutrophil count decreased, All Grades (Regimen 2A (n = 20)): 5 (25.0) n(%)
- Neutropenia/neutrophil count decreased, G3/4 (Regimen 2A (n = 20)): 4 (20.0) n(%)
- Thrombocytopenia/platelet count decreased, All Grades (Regimen 2A (n = 20)): 10 (50.0) n(%)
- Thrombocytopenia/platelet count decreased, G3/4 (Regimen 2A (n = 20)): 7 (35.0) n(%)
- Anemia, All Grades (Regimen 2C (n = 19)): 4 (21.1) n(%)
- Anemia, G3/4 (Regimen 2C (n = 19)): 3 (15.8) n(%)
- Leukopenia/white blood cell count decreased, All Grades (Regimen 2C (n = 19)): 2 (10.5) n(%)
- Leukopenia/white blood cell count decreased, G3/4 (Regimen 2C (n = 19)): 1 (5.3) n(%)
- Neutropenia/neutrophil count decreased, All Grades (Regimen 2C (n = 19)): 3 (15.8) n(%)
- Neutropenia/neutrophil count decreased, G3/4 (Regimen 2C (n = 19)): 2 (10.5) n(%)
- Thrombocytopenia/platelet count decreased, All Grades (Regimen 2C (n = 19)): 8 (42.1) n(%)
- Thrombocytopenia/platelet count decreased, G3/4 (Regimen 2C (n = 19)): 3 (15.8) n(%)
- nausea, all grade, patients (all 4 regimens, 44/85): 52%
- Grade 3/4 hematological toxicities suspected to be study-drug related, patients (all treatment regimens): ≤ 35%
- overall incidence of grade 3/4 thrombocytopenia compared across the 4 regimens (regimen 1B): lowest
- dose interruptions or discontinuations due to thrombocytopenia (regimen 1B 120 mg): no dose interruptions or discontinuations
- grade 3/4 neutropenia (regimen 1B 120 mg): 2 out of 9
- non-hematologic dose limiting toxicities or grade 3/4 AEs (regimen 1B 120 mg): no non-hematologic dose limiting toxicities or grade 3/4 AEs
- platelet transfusions required (regimen 1B 120 mg): no patients required platelet transfusions
- time to first occurrence of G4 thrombocytopenia (regimen 1B 150 mg): > 100 days
- therapeutic index among the 4 dosing regimens (regimen 1B (d1 and d8 of 4 w cycle)): most favorable therapeutic index
- lipase increase, CTCAE grade 3/4, patients (regimen 1B, 20 patients): 15%
- nausea, all grades, patients (regimen 1B, 20 patients): 60.0%
- neutropenia/neutrophil count decreased, CTCAE grade 3/4, patients (regimen 1B, 20 patients): 30.0%
- neutropenia/neutrophil count decreased, all grades, patients (regimen 1B, 20 patients): 40.0%
- patients with at least one CTCAE grade 3/4 AE suspected to be treatment-related (regimen 1B, 20 patients): 45.0%
- thrombocytopenia/platelet count decrease, CTCAE grade 3/4, patients (regimen 1B, 20 patients): 10.0%
- thrombocytopenia/platelet count decreased, all grades, patients (regimen 1B, 20 patients): 45.0%
- vomiting, all grades, patients (regimen 1B, 20 patients): 25.0%
